Where two headings read alike, the source gives them in different places.
Assay: Suppression test of Experimental Example 1: masking and harmonizing effect in a cup, four expert panelists;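 on harmonizing: score 1 means in harmony 0 indefinite and −1 not in harmony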
Description: In the present invention, the selection of the above component (I), component (II) and component (III) was carried out as follows. That is, one of the pseudo body odor compositions mentioned above and a target fragrance component were mixed and left at room temperature for 30 minutes. Thereafter, evaluations of the masking and harmonizing effects to the acid odor were carried out by four expert panelists.
After 30 minutes, a hole of about 1 cm in diameter was formed in the aluminum foil and the investigations of masking effect and the harmonizing effect were carried out according to following evaluation criteria by four expert panelists.
3: Excellent in the masking.
2: Substantially excellent in the masking.
1: Slightly sensible of the body odor (sweat odor and armpit odor).
0: Sensible of the body odor (sweat odor and armpit odor) (insufficient in the masking)

[1] = 200 μl pseudo body odor composition of Example 4 and 10 μl perfume on filter papers in sealed about 500 ml cup, after 30 minutes, four expert panelists, scale 0-3
[2] = 200 μl pseudo body odor composition of Example 4 and 10 μl perfume on filter papers in sealed about 500 ml cup, after 30 minutes, four expert panelists, scale −1 to 1

Compound | Masking [1] | Harmonizing [2] | Harmonizing | Masking [points]
CC(=O)OC1CCCCC1C(C)(C)C (centres unmarked) [2-tert-Butylcyclohexyl acetate] | 2 | 1 |  | 
CC(=O)OC(C)(C)C1CC=C(C)CC1 (centres unmarked) [Terpinyl acetate] | 2 | 0 |  | 
CC(C)[C@@H]1CC[C@@H](C)C[C@H]1O [l-Menthol] | 1 | −1 |  | 
O=C1CCCCCCCCOCCCCCCO1 [Oxalide, 10-oxa-16-hexadecanolide] | 0 | −1 |  | 
CCc1ccc(CC(C)(C)C=O)cc1 [Floralozone, p-ethyl-α,α-dimethyl phenyl propyl aldehyde] | 1.5 points | 0 |  | 
CC(C)=CCCC(C)CC#N (centres unmarked) [Citronellyl nitrile] | 3 | 1 |  | 
CC(C=O)Cc1ccc(C(C)C)cc1 (centres unmarked) [Cyclamen aldehyde, 2-methyl-3-(4-isopropylphenyl)propanal] | 1.5 points | −1 |  | 
COC(Cc1ccccc1)OC [Phenylactoaldehyde dimethylacetal] | 2 | 1 |  | 
CC(=O)/C=C/C1=C(C)CCCC1(C)C [β-Ionone] | 1.5 points | −1 |  | 
CCCCCC1C(=O)CCC1CC(=O)OC (centres unmarked) [Methyl dihydrojasmonate] | 2 | 1 |  | 
C=CCCC(=O)C1=CCCC(C)(C)C1 [α-Dynascone, 1-(5,5-dimethyl-cyclohexene-1-yl)-4-pentene-1-one] | 3 | 1 |  | 
2-butyl-4,6-dimethyl-dihydro-pyran [Vigorose] | 3 | 1 |  | 
c1ccc2[nH]ccc2c1 [Indole] | 1.5 points | −1 |  | 
CC1=CC(C)C(C=O)CC1 (centres unmarked) [Tripral, Dimethyl tetrahydrobenzaldehyde] | 3 | 1 |  | 
CCCCCC1=C(C)CCC1=O [Dihydrojasmone, 3-methyl-2-pentyl-2-cyclopentene-1-one] | 1 | 0 |  | 
O=C(OCCc1ccccc1)c1ccccc1O [Phenylethyl salicylate] | 1 | −1 |  | 
COc1ccc(C)cc1 [p-Cresyl methyl ether] | 3 | 1 |  | 
CCOC(=O)CC(C)=O [Ethyl acetoacetate] | 3 | 1 |  | 
COC(=O)c1ccccc1N [Methyl anthranilate] | 2.5 points | 1 |  | 
CC(=O)OC(C)c1ccccc1 (centres unmarked) [Styralyl acetate] | 3 | 1 |  | 
CC(=O)OCCC(C)CCC=C(C)C (centres unmarked) [Citronellyl acetate] | 1.5 points | 0 |  | 
CCCCCCC(C=O)=Cc1ccccc1 [α-Hexyl cinnamic aldehyde] |  | −1 |  | 
CC(=O)O[C@]1(C)CC[C@@]23C[C@@H]1C(C)(C)[C@@H]2CC[C@H]3C [Cedryl acetate] | 0 | −1 |  | 
COC(=O)c1c(C)cc(O)c(C)c1O [Evernyl, methyl dihydroxydimethyl benzoate] | 0 | −1 |  | 
CC(C)=CC1CC(C)CCO1 (centres unmarked) [Rose oxide] | 3 | 1 |  | 

Compound | Masking [1] | Harmonizing [2] | Harmonizing | Masking [points]
C=CCOC(=O)CCC1CCCCC1 [Allyl cyclohexyl propionate] | 2 | 0 |  | 
CC(=CCC1CC=C(C)C1(C)C)CO (centres unmarked) [Sandalmysore core, 2-methyl-4-(2,2,3-trimethyl-3-cyclopentene-1-yl)-2-butene-1-ol] | 2.5 points | 1 |  | 
CCCCCCC1CCC(=O)O1 (centres unmarked) [γ-Decalactone] | 2.5 points | 1 |  | 
CC12CCC(CC1=O)C2(C)C (centres unmarked) [Camphor] | 3 | 1 |  | 
O=C(Cc1ccccc1)OCCc1ccccc1 [Phenylethyl phenyl acetate] | 2 | 0 |  | 
C=C(C)C1CC=C(C)C(=O)C1 (centres unmarked) [Example 1-Carvone, 1-Carvone] | 3 | 1 |  | 
O=Cc1ccc2c(c1)OCO2 [Heliotropine] | 1.5 points | 0 |  | 
CC/C=C\CCOC(C)=O [cis-3-Hexenyl acetate] | 3 | 1 |  | 
CC(CC=O)CCCC(C)(C)O (centres unmarked) [Hydroxycitronellal] | 1 | 0 |  | 
CCOC(=O)C(C)CC (centres unmarked) [Ethyl-2-methyl butylate] | 3 | 1 |  | 
CC(C)c1ccc(C=O)cc1 [Cumin aldehyde] | 1.5 points | −1 |  | 
CC(=O)C(C)=C(C)C(C)C(C)(C)C (centres unmarked) [Koavone, ethylene tetramethyl heptanone] |  |  | 1 | 2.5
CC(C)=CCCC(C)CC=O (centres unmarked) [Citronellal] | 3 | 1 |  | 
C/C=C\C(=O)C1C(C)=CCCC1(C)C (stereo not drawn) [α-Damascone] | 2 | 0 |  | 
isocamphyl cyclohexanol [Santalex] | 0.5 points | −1 |  | 
CCCCCCCCCCCC=O [Dodecanal] | 1.5 points | −1 |  | 
C=CC(C)(O)CCC=C(C)C (centres unmarked) [Linalool] | 1 | 0 |  | 
CCCCCCCCCC(C)C=O (centres unmarked) [2-Methyl undecanal] |  | 0 |  | 
CC(C)=CCCC(C)=CC#N [Geranyl nitrile] | 3 | 1 |  | 
CC1(C)C2CCC1(C)C(O)C2 (centres unmarked) [Borneol] | 2.5 points | 1 |  | 
CC/C=C\CCOC(=O)c1ccccc1O [cis-3-Hexenyl salicylate] | 2 | 1 |  | 
CCCCCC1COCCC1OC(C)=O (centres unmarked) [Jasmal, 3-pentyl tetrahydropyranyl acetate] | 1 | −1 |  | 
CCC(O)COC1CCCCC1C(C)(C)C (centres unmarked) [Amber core, 1-(2-tert-butylcyclohexyloxy)butane-2-ol] | 0.5 points | −1 |  | 
COc1ccc(COC(C)=O)cc1 [Anisyl acetate] | 1.5 points | 0 |  | 
C=CCOC(=O)COCCC(C)C [Allyl amyl glycolate] | 3 | 1 |  | 

Compound | Masking [1] | Harmonizing [2] | Harmonizing | Masking [points]
Methylionone soap | 2 | 1 |  | 
CCOC(=O)CC1(C)OCCO1 [Fraistone, ethyl (2-methyl-[1,3]dioxolane-2-yl) acetate] | 1 | −1 |  | 
OCCc1ccccc1 [Phenylethyl alcohol] | 2.5 points | 1 |  | 
CC(=O)OCCc1ccccc1 [Phenylethyl acetate] | 2.5 points | 1 |  | 
CC1=CC(C)C(C=O)C(C)C1 (centres unmarked) [Isocyclocitral, trimethyl cyclohexene carbalehyde] | 2.5 points | 1 |  | 
CC(C)=CCCC(C)C=O (centres unmarked) [2,6-Dimethyl-5-heptenal] | 3 | 1 |  | 
CCCOC(C)OCCc1ccccc1 (centres unmarked) [Acetoaldehydephenylethylpropyl acetal] | 2.5 points | 1 |  | 
C=CCOC(=O)COC1CCCCC1 [Cyclogalbanate, allyl cyclohexyl oxyacetate] | 2.5 points | 1 |  | 
CC(=O)OC(c1ccccc1)C(Cl)(Cl)Cl (centres unmarked) [Rosephenone, trichloromethyl phenyl carbinyl acetate] | 1.5 points | 0 |  | 
O=C1CCCCCCCCCCCC(=O)OCCO1 [Musk T, ethylene brassylate] | 0.5 points | −1 |  | 
C=CCc1ccc(O)c(OC)c1 [Eugenol] | 1.5 points | 0 |  | 
CC(C)=CCCC1=CCC(C=O)CC1 (centres unmarked) [Myracaldehyde, 4-(4-methyl-3-pentenyl)-3-cyclohexene-1-carbaldehyde] | 1.5 points | 0 |  | 
CC(C=O)Cc1ccc(C(C)(C)C)cc1 (stereo not drawn) [Lilial, p-tert-butyl-α-methyl hydrocinnamic aldehyde] |  | 0 |  | 
O=c1ccc2ccccc2o1 [Coumarin] |  | 1 |  | 
Methyl naphthyl ketone | 1.5 points | −1 |  | 
CCCCCCCC1CCC(=O)O1 (centres unmarked) [γ-Undecalactone] |  |  | 1 | 
CC(=O)CCC=C(C)C [Methyl heptenone] | 3 | 1 |  | 
C=CC(C)CCCC(C)(C)O (centres unmarked) [Dihydromyrcenol] | 1.5 points | −1 |  | 
CCOC(=O)C12CCCC1C1CCC2C1 (centres unmarked) [Fluitate, ethyl tricyclo[5.2.1.0^2,6]decan-2-yl carboxylate] | 1.5 points | −1 |  | 
CC/C=C\CC1=C(C)CCC1=O [cis-Jasmone] | 1 | −1 |  | 
CC(C)CC1CC(C)(O)CCO1 (centres unmarked) [Dihydroroseoxide, 4-methyl-2-(2-methylpropyl)tetrahydro-2H-4-pyranol] | 1.5 points | 0 |  | 
CC1CC(C)(c2ccccc2)OC(C)O1 (centres unmarked) [Floropal, 2,4,6-trimethyl-4-phenyl-1,3-dioxane] | 1 | 0 |  | 
COc1ccc2ccccc2c1 [β-Naphthol methyl ether] |  |  | 1 | 

Source: US20060159639A1, “Pseudo body odor composition and perfume composition for inhibiting body odor” (priority 2003, published 2006)
